This test concerns HepaRG. Nature of the test: LDH release cytotoxicity, % of total lysis control; higher = more cytotoxic. Particulars: 48 h. An outline of the steps: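 The CytoTox-ONE kit was used to read LDH in 50 µL spent medium as resorufin fluorescence on a Tecan Safire, with 0.1% Triton X added to total lysis wells. Beforehand, single-lot HepaRG cells on collagen I-coated 96-well plates had been exposed in duplicate for 48 h to eight-point half-log series (top 100 µM) in serum-free induction medium containing 0.5% DMSO. Percent cytotoxicity was normalized against on-plate vehicle and total lysis controls and averaged over duplicates.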
Background: LDH in the medium is a marker of cell lysis.

Structures can show the parent of a compound that is named as a salt. ± gives the standard deviation of the averaged measurements.

For `CC(C)(C)C(=O)C(Oc1ccc(Cl)cc1)n1cncn1` (configuration not stated) [Triadimefon], the LDH release cytotoxicity by setting is: (0.031939 µM) -0.92 ± 0.21%; (0.101 µM) -0.0413 ± 0.61%; (0.31939 µM) -0.707 ± 0.2%; (1.01 µM) -0.437 ± 0.008%; (3.1939004 µM) 0.192 ± 0.53%; (10.1 µM) -0.0819 ± 0.64%. For the same compound, the LDH release cytotoxicity was 0.1 ± 0.59% (31.939 µM) and 0.544 ± 0.74% (101 µM).
Regarding `CC(C)=CC1C(C(=O)OCN2C(=O)C3=C(CCCC3)C2=O)C1(C)C` (configuration not stated) [Tetramethrin], the LDH release cytotoxicity is, setting by setting: (0.03162 µM) -1.77 ± 0.86%; (0.1 µM) -1.73 ± 1%; (0.3162278 µM) -2 ± 0.85%; (1 µM) -2.13 ± 0.4%; (3.16228 µM) -1.65 ± 0.066%; (10 µM) -1.51 ± 0.38%. Besides, the LDH release cytotoxicity is -0.61 ± 0.13% (31.6228 µM) and 0.736 ± 0.64% (100 µM).
Take `CC(C)=CCCC(C)=CC=O` [3,7-Dimethyl-2,6-octadienal]: the LDH release cytotoxicity is -1.99 ± 0.53% (0.03162 µM); -2.58 ± 0.96% (0.1 µM); -1.66 ± 0.9% (0.3162278 µM); -2.25 ± 1.7% (1 µM); -0.875 ± 0.71% (3.16228 µM); -0.825 ± 1.8% (10 µM). Besides, the LDH release cytotoxicity was -0.501 ± 0.3% (31.6228 µM) and 0.215 ± 0.38% (100 µM).
For the compound `C=CC(=O)OCCCCCC(C)C` [Isooctyl acrylate], the LDH release cytotoxicity is -1 ± 0.16% (0.03162 µM); -1.54 ± 0.15% (0.1 µM); -2.08 ± 0.28% (0.3162278 µM); -1.07 ± 0.63% (1 µM); -1.61 ± 0.64% (3.16228 µM); -1.55 ± 0.55% (10 µM). In addition, the LDH release cytotoxicity is -0.382 ± 0.33% (31.6228 µM) and 0.567 ± 1.4% (100 µM).
Consider `[O-][n+]1ccccc1S` [Sodium (2-pyridylthio)-N-oxide], for which the LDH release cytotoxicity by setting is: (0.03162 µM) -1.41 ± 0.6%; (0.1 µM) -0.73 ± 0.66%; (0.3162278 µM) -1.67 ± 0.53%; (1 µM) -0.357 ± 1.3%; (3.16228 µM) -1.51 ± 0.23%; (10 µM) -1.01 ± 0.22%. The LDH release cytotoxicity was -0.585 ± 0.072% (31.6228 µM) and 1.58 ± 0.14% (100 µM).
`CCC[CH2][Sn]([Cl])([CH2]CCC)[CH2]CCC` [Tributyltin chloride]: the LDH release cytotoxicity by setting is: (0.031623 µM) 0.564 ± 1.9%; (0.1 µM) -3.6 ± 1.2%; (0.316228 µM) -2.2 ± 0.71%; (1 µM) -2.91 ± 0.74%; (3.16228 µM) -3.46 ± 0.11%; (10 µM) -2.765 ± 0.018%. In addition, the LDH release cytotoxicity by setting is: (31.6228 µM) -1.81 ± 0.11%; (100 µM) 0.00684 ± 1.1%.
Consider `C=CCc1ccc(O)c(OC)c1` [Eugenol], for which the LDH release cytotoxicity is -2.2 ± 1.2% (0.03162 µM); -1.91 ± 0.14% (0.1 µM); -1.79 ± 0.029% (0.3162278 µM); -2.07 ± 0.26% (1 µM); -2.07 ± 0.21% (3.16228 µM); -1.74 ± 0.19% (10 µM). In addition, the LDH release cytotoxicity was -0.896 ± 0.51% (31.6228 µM) and -0.336 ± 0.32% (100 µM).
With `CC(C)(C)c1cc(O)c(C(C)(C)C)cc1O` [2,5-Di-tert-butylbenzene-1,4-diol], the LDH release cytotoxicity is, setting by setting: (0.03162 µM) -1.42 ± 0.46%; (0.1 µM) -1.56 ± 0.33%; (0.3162278 µM) -1.72 ± 1.2%; (1 µM) -1.69 ± 0.27%; (3.16228 µM) -1.49 ± 0.41%; (10 µM) -1.94 ± 0.31%. Also, the LDH release cytotoxicity is, setting by setting: (31.6228 µM) -1.04 ± 0.88%; (100 µM) -1.46 ± 0.39%.
On to `Cc1nc(N(C)C)nc(OC(=O)N(C)C)c1C` [Pirimicarb], for which the LDH release cytotoxicity (0.03162 µM) was -1.14 ± 0.57%; the LDH release cytotoxicity (0.1 µM) was -1.49 ± 0.94%; the LDH release cytotoxicity (0.3162278 µM) is -1.89 ± 0.61%; the LDH release cytotoxicity (1 µM) is -1.97 ± 1.2%; the LDH release cytotoxicity (3.16228 µM) is -1.7 ± 0.12%; the LDH release cytotoxicity (10 µM) is -1.84 ± 0.15%. The LDH release cytotoxicity by setting is: (31.6228 µM) -1.4 ± 0.24%; (100 µM) -0.895 ± 1.2%.
Regarding `CN(C)C1C(=O)C(C(N)=O)C(=O)C2(O)C(=O)C3C(=O)c4c(O)cccc4C(C)(O)C3C(O)C12` (configuration not stated) [Oxytetracycline hydrochloride], the LDH release cytotoxicity was -0.636 ± 0.43% (0.03162 µM); -0.707 ± 0.15% (0.1 µM); -1.81 ± 0.59% (0.3162278 µM); -1.93 ± 0.75% (1 µM); -1.93 ± 0.7% (3.16228 µM); -1.21 ± 0.36% (10 µM). The LDH release cytotoxicity was -1.75 ± 1.1% (31.6228 µM) and -1.47 ± 0.43% (100 µM).
For `Cc1ccc(O)c(C)c1` [2,4-Dimethylphenol], the LDH release cytotoxicity (0.03162 µM) was -0.236 ± 0.8%; the LDH release cytotoxicity (0.1 µM) is -1.06 ± 0.065%; the LDH release cytotoxicity (0.3162278 µM) is -0.554 ± 0.3%; the LDH release cytotoxicity (1 µM) is -0.084 ± 0.78%; the LDH release cytotoxicity (3.16228 µM) worked out at 0.0582 ± 0.56%; the LDH release cytotoxicity (10 µM) was -0.172 ± 0.66%. Besides, the LDH release cytotoxicity runs as follows: (31.6228 µM) -0.59 ± 0.59%; (100 µM) -0.251 ± 0.47%.
For `C1CCC(SSC2CCCCC2)CC1` [Dicyclohexyl disulfide], the LDH release cytotoxicity is -0.985 ± 0.37% (0.03162 µM); -0.62 ± 0.75% (0.1 µM); -0.405 ± 0.35% (0.3162278 µM); -1.38 ± 0.086% (1 µM); -2 ± 0.2% (3.16228 µM); -0.29 ± 0.24% (10 µM). Also, the LDH release cytotoxicity reads like this: (31.6228 µM) 2.64 ± 0.37%; (100 µM) 68.4 ± 6.2%.
With `CCC(CC)Nc1c([N+](=O)[O-])cc(C)c(C)c1[N+](=O)[O-]` [Pendimethalin], the LDH release cytotoxicity (0.03162 µM) is -2.12 ± 0.66%; the LDH release cytotoxicity (0.1 µM) is -1.6 ± 0.38%; the LDH release cytotoxicity (0.3162278 µM) is -0.436 ± 0.39%; the LDH release cytotoxicity (1 µM) turned out to be 0.269 ± 1.7%; the LDH release cytotoxicity (3.16228 µM) came to 1.12 ± 0.21%; the LDH release cytotoxicity (10 µM) amounted to 0.875 ± 1.2%. Also, the LDH release cytotoxicity runs as follows: (31.6228 µM) -2.25 ± 0.069%; (100 µM) 1.08 ± 1.2%.
With `COc1ccc(O)c(C(C)(C)C)c1` [2-tert-Butyl-4-methoxyphenol], the LDH release cytotoxicity was -1.55 ± 0.4% (0.03162 µM); -1.18 ± 0.12% (0.1 µM); 0.0233 ± 0.91% (0.3162278 µM); 0.0291 ± 1.1% (1 µM); 0.0384 ± 1.3% (3.16228 µM); 0.94 ± 1.4% (10 µM). Also, the LDH release cytotoxicity reads like this: (31.6228 µM) 1.15 ± 1.3%; (100 µM) 2.22 ± 1.8%.
